# Values quoted from earlier work in patent publication US20080274094A1, “Molecular Complex Comprising Arbutine, Ascorbic Acid, Oleuropeina or Its Derivatives Thereof and Related Uses In Medical Field” (MED CARE S.R.L., priority 2005, published 2008).
# Assays:
# [1] = system: cultured human melanocytes; conditions: Pigment Cell Res. 1998; mechanism other than induction of tyrosinase activity
# TNF alpha receptors = conditions: Biochem Pharmacol 1999, Mancini et al.
Structure (SMILES),pigmentation of cultured human melanocytes [1],effect on TNF alpha receptors (TNF alpha receptors)
OC[C@H]1O[C@@H](Oc2ccc(O)cc2)[C@H](O)[C@@H](O)[C@@H]1O [Arbutin],increases the pigmentation,
Cc1ccc(C(=O)Nc2ccc(S(=O)(=O)O)c3cc(S(=O)(=O)O)cc(S(=O)(=O)O)c23)cc1NC(=O)c1cccc(NC(=O)Nc2cccc(C(=O)Nc3cc(C(=O)Nc4ccc(S(=O)(=O)O)c5cc(S(=O)(=O)O)cc(S(=O)(=O)O)c45)ccc3C)c2)c1 [suramin],,inhibitory effect
